Experiments:
[1] = Inhibition of Zea mays BMS cells Adenylosuccinate synthase assessed as adenylosuccinate formation; type: cell-based; settings: read-out: I50
[2] = (§1) Inhibition of rabbit muscle Adenylosuccinate synthase assessed as adenylosuccinate formation; design: species or system Oryctolagus cuniculus; settings: read-out: I50
[3] = species: Oryctolagus cuniculus; test: as §1; settings: TDE = time-dependent effect

For `O=c1[nH]ncn1[C@@H]1O[C@H](COP(=O)(O)O)[C@@H](O)[C@H]1O` [PHOSPHORIBOFURANOSYL TRIAZOLONE], which IC50 [1] is on record?
Its IC50 is 980 nM.

And the IC50 [2]?
The IC50 was 180 nM.

What about the Activity [3] of the same molecule?
The Activity was “tde”.

Source: ChEMBL document CHEMBL1142627, “Ribofuranosyl triazolone: a natural product herbicide with activity on adenylosuccinate synthetase following phosphorylation” (J Nat Prod, 2000)
